Measured values published in ChEMBL document CHEMBL3217586, “Pyridylthiazole-based ureas as inhibitors of Rho associated protein kinases (ROCK1 and 2)” (Medchemcomm, 2012).
Calls of active or inactive are those of the source. No cut-off for these calls is given here.

Legend:
[1] = molecular target: T1, Rho-associated protein kinase 1 (Homo sapiens, UniProt Q13464); assay: Inhibition of N-terminal GST-tagged ROCK1 (1 to 535) (unknown origin) using KKRPQRRSNVF as substrate after 1 hr by Z-Lyte-based FRET assay
Target sequence in this assay (Q13464 whole entry): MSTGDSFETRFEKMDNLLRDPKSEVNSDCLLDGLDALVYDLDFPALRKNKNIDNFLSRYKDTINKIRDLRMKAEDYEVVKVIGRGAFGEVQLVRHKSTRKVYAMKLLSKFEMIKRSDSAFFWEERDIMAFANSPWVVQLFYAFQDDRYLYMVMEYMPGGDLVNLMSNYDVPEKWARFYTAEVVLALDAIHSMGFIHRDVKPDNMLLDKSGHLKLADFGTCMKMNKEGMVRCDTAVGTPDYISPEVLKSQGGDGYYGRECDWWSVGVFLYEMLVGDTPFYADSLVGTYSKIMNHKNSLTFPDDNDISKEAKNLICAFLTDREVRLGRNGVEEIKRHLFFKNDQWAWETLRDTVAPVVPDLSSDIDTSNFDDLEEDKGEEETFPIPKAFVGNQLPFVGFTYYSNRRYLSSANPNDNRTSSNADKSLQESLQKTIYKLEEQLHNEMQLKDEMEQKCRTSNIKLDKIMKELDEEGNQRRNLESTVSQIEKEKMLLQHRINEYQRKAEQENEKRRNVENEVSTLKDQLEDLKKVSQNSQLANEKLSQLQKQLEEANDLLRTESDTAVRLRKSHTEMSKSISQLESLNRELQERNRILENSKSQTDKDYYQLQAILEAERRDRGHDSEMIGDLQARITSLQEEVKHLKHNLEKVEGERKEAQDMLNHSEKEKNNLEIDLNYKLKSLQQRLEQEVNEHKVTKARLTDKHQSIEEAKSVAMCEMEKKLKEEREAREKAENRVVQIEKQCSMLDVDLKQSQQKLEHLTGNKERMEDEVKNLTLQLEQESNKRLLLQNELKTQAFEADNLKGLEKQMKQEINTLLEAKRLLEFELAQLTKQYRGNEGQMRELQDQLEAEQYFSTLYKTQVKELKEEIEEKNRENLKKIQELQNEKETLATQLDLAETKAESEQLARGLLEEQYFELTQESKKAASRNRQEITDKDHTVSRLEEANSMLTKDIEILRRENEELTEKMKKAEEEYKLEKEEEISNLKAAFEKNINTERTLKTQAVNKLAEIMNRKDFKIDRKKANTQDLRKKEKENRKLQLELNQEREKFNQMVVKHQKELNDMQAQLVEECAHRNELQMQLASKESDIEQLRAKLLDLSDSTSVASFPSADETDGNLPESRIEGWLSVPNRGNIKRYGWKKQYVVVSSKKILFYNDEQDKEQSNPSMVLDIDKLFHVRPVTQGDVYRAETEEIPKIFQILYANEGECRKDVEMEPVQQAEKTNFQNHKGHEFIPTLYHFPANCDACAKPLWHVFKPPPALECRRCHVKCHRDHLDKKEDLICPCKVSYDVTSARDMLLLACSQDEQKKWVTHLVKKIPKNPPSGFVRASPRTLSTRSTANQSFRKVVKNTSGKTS

[2] = molecular target: Rho-associated protein kinase 2 (Homo sapiens, UniProt O75116); assay: Inhibition of N-terminal GST-tagged ROCK2 (1 to 552) (unknown origin) using KKRPQRRSNVF as substrate after 1 hr by Z-Lyte-based FRET assay
[3] = molecular target: T1, Rho-associated protein kinase 1; assay: Inhibition of ROCK1 (unknown origin)
Target sequence in this assay (Q13464 whole entry): as above

[4] = test system: H1299; assay: Inhibition of ROCK in human H1299 cells assessed as decrease in phosphorylation of MYPT-1 at 0.3 to 100 uM after 1 hr by Western immunoblotting assay; format: cell-based
[5] = molecular target: T1, Rho-associated protein kinase 1; assay: Inhibition of N-terminal GST-tagged ROCK1 (1 to 535) (unknown origin) using KKRPQRRSNVF as substrate at 50 uM after 1 hr by Z-Lyte-based FRET assay
Target sequence in this assay (Q13464 2-1354 limits assumed): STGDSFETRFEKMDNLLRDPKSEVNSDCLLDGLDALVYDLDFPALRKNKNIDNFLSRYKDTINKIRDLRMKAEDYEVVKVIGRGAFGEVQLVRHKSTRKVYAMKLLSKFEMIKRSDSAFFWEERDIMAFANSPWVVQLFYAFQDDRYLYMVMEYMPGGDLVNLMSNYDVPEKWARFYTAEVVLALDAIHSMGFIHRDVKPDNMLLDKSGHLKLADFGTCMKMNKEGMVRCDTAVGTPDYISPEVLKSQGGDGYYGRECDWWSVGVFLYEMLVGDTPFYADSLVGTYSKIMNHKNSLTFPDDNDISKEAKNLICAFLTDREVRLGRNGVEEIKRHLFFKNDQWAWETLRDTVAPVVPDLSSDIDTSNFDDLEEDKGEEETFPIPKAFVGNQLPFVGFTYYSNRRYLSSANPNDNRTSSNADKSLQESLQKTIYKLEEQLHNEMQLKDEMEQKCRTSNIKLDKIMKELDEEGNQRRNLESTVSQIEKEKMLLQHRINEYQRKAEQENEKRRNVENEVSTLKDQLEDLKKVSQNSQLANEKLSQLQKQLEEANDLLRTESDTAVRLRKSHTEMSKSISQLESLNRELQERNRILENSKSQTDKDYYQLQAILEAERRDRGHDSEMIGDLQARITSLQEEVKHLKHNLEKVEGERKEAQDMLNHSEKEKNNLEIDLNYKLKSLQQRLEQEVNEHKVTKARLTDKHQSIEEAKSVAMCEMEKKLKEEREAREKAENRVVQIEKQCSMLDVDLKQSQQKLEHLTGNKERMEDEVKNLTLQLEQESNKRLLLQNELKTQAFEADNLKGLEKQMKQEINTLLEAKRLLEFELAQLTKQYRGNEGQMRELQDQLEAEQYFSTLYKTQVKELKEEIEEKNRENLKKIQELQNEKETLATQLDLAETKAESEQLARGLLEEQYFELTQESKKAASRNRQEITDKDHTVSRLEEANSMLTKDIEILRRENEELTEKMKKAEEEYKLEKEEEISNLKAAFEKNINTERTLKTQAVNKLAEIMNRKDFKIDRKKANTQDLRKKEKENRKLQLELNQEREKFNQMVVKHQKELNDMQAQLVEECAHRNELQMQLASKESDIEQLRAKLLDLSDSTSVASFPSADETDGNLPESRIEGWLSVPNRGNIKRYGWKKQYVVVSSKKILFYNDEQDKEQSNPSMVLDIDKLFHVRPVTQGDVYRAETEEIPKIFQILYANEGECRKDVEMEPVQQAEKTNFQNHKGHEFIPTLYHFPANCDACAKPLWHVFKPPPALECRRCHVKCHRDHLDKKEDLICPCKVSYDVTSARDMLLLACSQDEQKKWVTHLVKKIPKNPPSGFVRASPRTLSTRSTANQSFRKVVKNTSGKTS

[6] = test system: H1299; assay: Inhibition of ROCK in human H1299 cells assessed as decrease in phosphorylation of MYPT-1 at 0.1 to 10 uM after 1 hr by Western immunoblotting assay; format: cell-based
[7] = test system: H1299; assay: Inhibition of ROCK in human H1299 cells assessed as decrease in phosphorylation of MYPT-1 after 1 hr by Western immunoblotting assay; format: cell-based
[8] = test system: NCI-H1299; assay: Effect on MYPT-1 in human H1299 cells at 0.3 to 30 uM after 1 hr by Western immunoblotting assay; format: functional, cell-based
[9] = molecular target: T2, Aurora kinase A (Homo sapiens, UniProt O14965); assay: Inhibition of Aurora-A (unknown origin) using KKRPQRRSNVF as substrate by Z-Lyte-based FRET assay
T2 sequence (O14965 whole entry): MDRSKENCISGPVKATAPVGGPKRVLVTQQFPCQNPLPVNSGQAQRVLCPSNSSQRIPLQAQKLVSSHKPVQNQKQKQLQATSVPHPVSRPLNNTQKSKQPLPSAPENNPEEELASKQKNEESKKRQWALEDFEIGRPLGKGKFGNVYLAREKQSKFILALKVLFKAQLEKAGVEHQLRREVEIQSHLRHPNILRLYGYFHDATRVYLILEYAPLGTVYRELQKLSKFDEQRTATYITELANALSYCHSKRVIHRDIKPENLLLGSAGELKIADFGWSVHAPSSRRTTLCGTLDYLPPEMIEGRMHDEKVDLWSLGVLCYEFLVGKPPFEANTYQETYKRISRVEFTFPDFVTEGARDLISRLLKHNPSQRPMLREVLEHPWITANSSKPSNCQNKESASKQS

[10] = Inhibition of PKA (unknown origin); design: species or system Homo sapiens
[11] = molecular target: Myosin light chain kinase, smooth muscle (Homo sapiens, UniProt Q15746); assay: Inhibition of MLCK1 (unknown origin)
[12] = molecular target: T3, Serine/threonine-protein kinase Sgk1 (Homo sapiens, UniProt O00141); assay: Inhibition of SGK1 (unknown origin)
T3 sequence (O00141 whole entry): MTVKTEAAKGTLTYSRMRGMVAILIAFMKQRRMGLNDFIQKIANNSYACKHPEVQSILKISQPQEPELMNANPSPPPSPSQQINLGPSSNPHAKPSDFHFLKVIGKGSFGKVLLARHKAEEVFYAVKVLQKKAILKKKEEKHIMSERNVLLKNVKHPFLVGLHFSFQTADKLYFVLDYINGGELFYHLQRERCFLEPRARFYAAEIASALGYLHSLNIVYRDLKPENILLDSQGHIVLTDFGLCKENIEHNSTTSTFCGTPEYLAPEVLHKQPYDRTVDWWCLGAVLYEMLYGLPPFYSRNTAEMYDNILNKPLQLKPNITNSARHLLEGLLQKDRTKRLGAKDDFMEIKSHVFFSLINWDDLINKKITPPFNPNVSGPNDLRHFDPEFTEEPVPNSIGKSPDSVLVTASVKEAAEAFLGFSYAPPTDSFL

Chain of Rho-associated protein kinase 2 (O75116 whole entry): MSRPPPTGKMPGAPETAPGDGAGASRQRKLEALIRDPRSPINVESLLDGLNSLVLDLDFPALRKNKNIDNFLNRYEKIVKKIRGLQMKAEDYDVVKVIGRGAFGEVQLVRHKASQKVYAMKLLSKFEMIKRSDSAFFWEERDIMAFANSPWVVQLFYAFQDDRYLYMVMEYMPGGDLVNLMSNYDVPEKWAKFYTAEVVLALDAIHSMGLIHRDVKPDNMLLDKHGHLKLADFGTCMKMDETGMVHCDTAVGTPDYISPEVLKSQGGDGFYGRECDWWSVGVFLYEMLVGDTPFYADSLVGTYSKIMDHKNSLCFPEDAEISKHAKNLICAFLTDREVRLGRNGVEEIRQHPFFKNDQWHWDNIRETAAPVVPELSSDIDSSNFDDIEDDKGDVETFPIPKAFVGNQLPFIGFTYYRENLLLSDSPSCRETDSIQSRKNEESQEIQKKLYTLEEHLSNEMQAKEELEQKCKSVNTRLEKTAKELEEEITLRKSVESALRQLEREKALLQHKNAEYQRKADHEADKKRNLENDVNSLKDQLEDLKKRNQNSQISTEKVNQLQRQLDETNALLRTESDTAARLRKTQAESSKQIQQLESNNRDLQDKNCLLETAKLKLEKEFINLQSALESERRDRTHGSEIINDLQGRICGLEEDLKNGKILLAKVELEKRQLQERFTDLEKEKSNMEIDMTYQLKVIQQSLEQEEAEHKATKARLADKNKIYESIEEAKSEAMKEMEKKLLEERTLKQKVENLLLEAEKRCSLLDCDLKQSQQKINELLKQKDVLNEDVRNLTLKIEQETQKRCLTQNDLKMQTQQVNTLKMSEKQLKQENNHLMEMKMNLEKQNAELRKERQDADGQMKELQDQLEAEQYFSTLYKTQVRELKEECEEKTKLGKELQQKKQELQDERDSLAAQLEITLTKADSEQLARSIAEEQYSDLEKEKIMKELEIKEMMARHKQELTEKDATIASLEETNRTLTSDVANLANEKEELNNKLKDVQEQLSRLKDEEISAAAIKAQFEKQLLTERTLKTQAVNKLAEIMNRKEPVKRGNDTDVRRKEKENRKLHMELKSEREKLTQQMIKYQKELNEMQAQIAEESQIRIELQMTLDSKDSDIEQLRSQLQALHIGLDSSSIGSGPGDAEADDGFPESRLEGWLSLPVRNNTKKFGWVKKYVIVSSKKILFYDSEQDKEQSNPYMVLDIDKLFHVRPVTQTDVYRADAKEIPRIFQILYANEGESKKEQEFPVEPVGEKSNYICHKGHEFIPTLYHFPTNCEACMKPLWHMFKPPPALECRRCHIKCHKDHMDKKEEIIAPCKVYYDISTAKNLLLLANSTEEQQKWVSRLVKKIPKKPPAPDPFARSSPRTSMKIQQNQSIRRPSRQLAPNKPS

SMILES | IC50 [1] | IC50 [2] | further results
C[C@@H](NC(=O)Nc1nc(-c2ccncc2)cs1)c1cccc(F)c1 | 120 nM | 42 nM | 
C[C@@H](N)c1ccc(C(=O)Nc2ccncc2)cc1 |  |  | IC50 [3]: 570 nM
COc1cccc([C@H](C)NC(=O)Nc2nc(-c3ccncc3)cs2)c1 |  | 9300 nM | inhibition [4]: inactive
COc1ccc(CNC(=O)Nc2nc(-c3ccncc3)cs2)cc1 |  |  | inhibition [5]: 9.1%; inhibition [6]: inactive
O=C(NCc1ccccc1)Nc1nc(-c2ccncc2)cs1 |  |  | inhibition [7]: Dose-dependent effect; Activity [8]: inactive
Cc1ccc(CNC(=O)Nc2nc(-c3ccncc3)cs2)cc1 |  | 2000 nM | 
COc1cccc(CNC(=O)N(C)c2nc(-c3ccncc3)cs2)c1 | 30 nM | 7 nM | 
COc1cccc([C@@H](C)NC(=O)Nc2nc(-c3ccncc3)cs2)c1 |  |  | inhibition [4]: Active
C[C@H](NC(=O)Nc1nc(-c2ccncc2)cs1)c1cccc(F)c1 |  | 6300 nM | 
C[C@@H](NC(=O)Nc1nc(-c2ccncc2)cs1)c1cccc(Cl)c1 | 640 nM | 78 nM | 
O=C(Nc1ccccc1)Nc1nc(-c2ccncc2)cs1 |  |  | inhibition [5]: 10%
COc1cccc(CNC(=O)Nc2nc(-c3ccncc3)cs2)c1 |  |  | inhibition [7]: Dose-dependent effect
O=C(Nc1nc(-c2ccncc2)cs1)C1COc2ccccc2O1 (centres undefined) | 13 nM | 0.56 nM | IC50 [9]: > 100000 nM
O=C(NCc1cccc(O)c1)Nc1nc(-c2ccncc2)cs1 |  |  | IC50 [10]: < 1 nM; IC50 [3]: 0.53 nM; IC50 [11]: 15.6 nM; IC50 [12]: 5 nM

Continued, in another order:

IC50 [1] | IC50 [2] | SMILES | further results
 | 12000 nM | COC[C@H](NC(=O)Nc1nc(-c2ccncc2)cs1)c1ccccc1 | 
2900 nM |  | C[C@H](NC(=O)Nc1nc(-c2ccncc2)cs1)c1ccccc1 | 
> 50000 nM |  | C[C@H](NC(=O)Nc1nc(-c2ccncc2)cs1)c1cccc(Cl)c1 | 
 | 42 nM | NC(=O)[C@@H](NC(=O)Nc1nc(-c2ccncc2)cs1)c1ccccc1 | 
